Source: patent US8772290B2, “Alpha-arylmethoxyacrylate derivative, preparation method thereof, and pharmaceutical composition containing same” (Oscotech Inc., priority 2010, dated 2014)

test system: HIF; assay: Assay for inhibitory activity against HIF activity (HIF1 luciferase reporter cell line); type: cell-based, human; conditions: Homo sapiens; HEK293 HIF1 reporter cell line, 1% oxygen, 6 hours, luciferase activity 50% inhibited
Description: In order to assay the compounds of the present invention for inhibitory activity against HIF activity, the HIF1 reporter plasmid (Panomics) that is designed to control the expression of luciferase by HIF was employed. The HIF1 reporter plasmid and the pTK-Hyg plasmid (Clontech), which carries a hygromycin resistant gene, were co-transfected into the HEK293 cell line (the Korean Cell Line Bank, KCLB No. 21573), derived from the human kidney, with the aid of Effectene transfection reagent (Qiagen). Then, the cells were cultured for 3 weeks on a medium containing 200 μg/mL hygromycin to select transformants resistant to hygromycin. The cell colonies derived from single cells were transferred to 24-well plates to secure a reporter cell line. The cells were seeded at a density of 4×10^4 cells/well into 96-well plates containing DMEM and incubated for 24 hours before treatment with the compounds of the present invention at a concentration of 25 μM, 5 μM, 1 μM, 200 nM, 40 nM, 8 nM, 1.6 nM, 320 pM, 64 pM, 12.8 pM, 2.56 pM, 512 fM, 102 fM, 20.4 fM, or an amount between any two concentrations above as shown in FIGS. 1A to 1C. Under 1% oxygen condition, the cells were incubated for 6 hours and then, the medium was removed. The cells were lyzed by incubation for 5 min with 100 μL of the mixture of Bright-Glo™ luciferase assay buffer and Bright-Glo™ luciferase assay substrate (Promega). The whole cell lysate was transferred to 96-well, white plates (PerkinElmer) and measured for luminescence using Victor™ 3 (PerkinElmer). From the luminescence measurements, IC50 (a concentration of the compound at which luciferase activity was 50% inhibited) was calculated using the GraphPad Prism™ 4 program. The results are summarized in Table 2 and illustrated in FIGS. 1A to 1C.

Row | SMILES | IC50
1 | CO/C=C(/C(=O)OC)c1ccccc1COc1cccc(O)c1 [Compound 5, (E)-methyl 2-(2-((5-hydroxyphenoxy)methyl)phenyl)-3-methoxyacrylate] | 1990 nM
2 | CO/C=C(/C(=O)OC)c1ccccc1COc1cc(C=O)ccc1OC [Compound 6, (E)-methyl 2-(2-((5-formyl-2-methoxyphenoxy)methyl)phenyl)-3-methoxyacrylate] | 14600 nM
3 | CCCO/N=C(\CC)c1cccc(OCc2ccccc2/C(=C\OC)C(=O)OC)c1 [Compound 7, (E)-methyl 2-(2-((3-((E)-1-(propoxyimino)propyl)phenoxy)methyl)-phenyl)-3-methoxyacrylate] | 5070 nM
4 | CCCO/N=C(\C)c1ccc(OCc2ccccc2/C(=C\OC)C(=O)OC)cc1 [Compound 8, (E)-methyl 2-(2-((4-((E)-1-(propoxyimino)ethyl)phenoxy)methyl)phenyl)-3-methoxyacrylate] | 1110 nM
5 | CO/C=C(/C(=O)OC)c1ccccc1COc1ccc(/C(C)=N/OCCN2CCCCC2)cc1 [Compound 9, (E)-methyl 2-(2-((4-((E)-1-(2-(piperidin-1-yl)ethoxyimino)ethyl)phenoxy)-methyl)phenyl)-3-methoxyacrylate] | 6410 nM
6 | CO/C=C(/C(=O)OC)c1ccccc1COc1cccc(/C=N/OCCN2CCCCC2)c1 [Compound 10, (E)-methyl 3-methoxy-2-(2-((3-((E)-(2-(piperidin-1-yl)ethoxyimino)methyl)phenoxy)methyl)phenyl)acrylate] | 7070 nM
7 | CO/C=C(/C(=O)OC)c1ccccc1COc1cccc(OCCNCCO)c1 [Compound 11, (E)-methyl 2-(2-((3-(2-(2-hydroxyethylamino)ethoxy)phenoxy)methyl)-phenyl)-3-methoxyacrylate] | 640 nM
8 | CO/C=C(/C(=O)OC)c1ccccc1COc1cccc(OCCO)c1 [Compound 12, (E)-methyl 2-(2-((3-(2-hydroxyethoxy)phenoxy)methyl)phenyl)-3-methoxyacrylate] | 5990 nM
9 | CO/C=C(/C(=O)OC)c1ccccc1COc1cccc(OCC[N+]2([O-])CCOCC2)c1 [Compound 13, (E)-4-(2-(3-(2-(1,3-dimethoxy-3-oxoprop-1-en-2-yl)benzyloxy)phenoxy)-ethyl)morpholine 4-oxide] | 10000 nM
10 | CCCO/N=C/c1cccc(OCc2ccccc2/C(=C\OC)C(=O)OC)c1 [Compound 14, (E)-methyl 3-methoxy-2-(2-((3-((E)-(propoxyimino)methyl)phenoxy)-methyl)phenyl)acrylate] | 19900 nM
11 | CO/C=C(/C(=O)OC)c1ccccc1COc1cc(O)cc(F)c1 [Compound 15, (E)-methyl 2-(2-((3-fluoro-5-hydroxyphenoxy)methyl)phenyl)-3-methoxyacrylate] | 3720 nM
12 | CO/C=C(/C(=O)OC)c1ccccc1COc1ccc(F)cc1 [Compound 19, (E)-methyl 2-(2-((4-fluorophenoxy)methyl)phenyl)-3-methoxyacrylate] | 920 nM
13 | CO/C=C(/C(=O)OC)c1ccccc1COc1cc(F)cc(OCc2ccc([N+](=O)[O-])cc2)c1 [Compound 24, (E)-methyl 2-(2-((3-fluoro-5-(4-nitrobenzyloxy)phenoxy)methyl)phenyl)-3-methoxyacrylate] | 640 nM
14 | CO/C=C(/C(=O)OC)c1ccccc1COc1cccc(OCc2ccccn2)c1 [Compound 26, (E)-methyl 2-(2-((3-(pyridin-2-ylmethoxy)phenoxy)methyl)phenyl)-3-methoxyacrylate] | 510 nM
15 | CO/C=C(/C(=O)OC)c1ccccc1COc1cc(O)cc(OCc2ccccn2)c1 [Compound 28, (E)-methyl 2-(2-((3-hydroxy-5-(pyridin-2-ylmethoxy)phenoxy)methyl)-phenyl)-3-methoxyacrylate] | 710 nM
16 | CO/C=C(/C(=O)OC)c1ccccc1COc1cc(O)cc(OCc2ccncc2)c1 [Compound 29, (E)-methyl 2-(2-((3-hydroxy-5-(pyridin-4-ylmethoxy)phenoxy)methyl)-phenyl)-3-methoxyacrylate] | 11000 nM
17 | CC/C(=N\N1CCOCC1)c1cc(C)c(OCc2ccccc2/C(=C\OC)C(=O)OC)cc1C [Compound 30, (E)-methyl 2-(2-((2,5-dimethyl-4-((E)-1-(morpholinoimino)propyl)-phenoxy)methyl)phenyl)-3-methoxyacrylate] | 4140 nM
18 | CO/C=C(/C(=O)OC)c1ccccc1COc1ccc(/C=N/O)cc1C [Compound 31, (E)-methyl 2-(2-((4-((E)-(hydroxyimino)methyl)-2-methylphenoxy)-methyl)phenyl)-3-methoxyacrylate] | 1730 nM
19 | CO/C=C(/C(=O)OC)c1ccccc1COc1ccc(/C(C)=N/O)cc1OC [Compound 34, (E)-methyl 2-(2-((4-((E)-1-(hydroxyimino)ethyl)-2-methoxyphenoxy)-methyl)phenyl)-3-methoxyacrylate] | 4480 nM
20 | CCCO/N=C(\C)c1ccc(OCc2ccccc2/C(=C\OC)C(=O)OC)c(OC)c1 [Compound 35, (E)-methyl 2-(2-((4-((E)-1-(propoxyimino)ethyl)-2-methoxyphenoxy)-methyl)phenyl)-3-methoxyacrylate] | 1920 nM
21 | CO/C=C(/C(=O)OC)c1ccccc1COc1ccc(/C(C)=N/OCc2ccccc2)cc1OC [Compound 36, (E)-methyl 2-(2-((4-((E)-1-(benzyloxyimino)ethyl)-2-methoxyphenoxy)-methyl)phenyl)-3-methoxyacrylate] | 880 nM

Now those with a lower IC50, led by results:

Row | IC50 | SMILES
22 | 490 nM | CO/C=C(/C(=O)OC)c1ccccc1COc1cc(F)cc(OCc2ccccc2)c1 [Compound 21, (E)-methyl 2-(2-((3-(benzyloxy)-5-fluorophenoxy)methyl)phenyl)-3-methoxyacrylate]
23 | 440 nM | CO/C=C(/C(=O)OC)c1ccccc1COc1cccc(/C=N/N2CCOCC2)c1 [Compound 25, (E)-methyl 3-methoxy-2-(2-((3-((E)-(morpholinoimino)methyl)phenoxy)-methyl)phenyl)acrylate]
24 | 400 nM | CO/C=C(/C(=O)OC)c1ccccc1COc1ccc(/C(C)=N/OCCc2ccccc2)cc1 [Compound 18, (E)-methyl 2-(2-((4-((E)-1-(phenethoxyimino)ethyl)phenoxy)methyl)-phenyl)-3-methoxyacrylate]
25 | 370 nM | CO/C=C(/C(=O)OC)c1ccccc1COc1ccc(/C(C)=N/OCc2ccccc2)cc1 [Compound 17, (E)-methyl 2-(2-((4-((E)-1-(benzyloxyimino)ethyl)phenoxy)methyl)-phenyl)-3-methoxyacrylate]
26 | 340 nM | CO/C=C(/C(=O)OC)c1ccccc1COc1cccc(OCCc2ccccc2)c1 [Compound 16, (E)-methyl 2-(2-((3-phenethoxyphenoxy)methyl)phenyl)-3-methoxyacrylate]
27 | 340 nM | CO/C=C(/C(=O)OC)c1ccccc1COc1cccc(OCc2ccncc2)c1 [Compound 27, (E)-methyl 2-(2-((3-(pyridin-4-ylmethoxy)phenoxy)methyl)phenyl)-3-methoxyacrylate]
28 | 290 nM | CCO/N=C/c1cccc(OCc2ccccc2/C(=C\OC)C(=O)OC)c1 [Compound 4, (E)-methyl 2-(2-((3-((E)-(ethoxyimino)methyl)phenoxy)methyl)phenyl)-3-methoxyacrylate]
29 | 260 nM | CO/C=C(/C(=O)OC)c1ccccc1COc1cc(F)cc(OCCOc2ccccc2)c1 [Compound 22, (E)-methyl 2-(2-((3-fluoro-5-(2-phenoxyethoxy)phenoxy)methyl)phenyl)-3-methoxyacrylate]
30 | 230 nM | CO/C=C(/C(=O)OC)c1ccccc1COc1cc(F)cc(OCc2ccccn2)c1 [Compound 23, (E)-methyl 2-(2-((3-fluoro-5-(pyridin-2-ylmethoxy)phenoxy)methyl)-phenyl)-3-methoxyacrylate]
31 | 210 nM | CO/C=C(/C(=O)OC)c1ccccc1COc1ccc(/C=N/OCc2ccccc2)cc1C [Compound 33, (E)-methyl 2-(2-((4-((E)-(benzyloxyimino)methyl)-2-methylphenoxy)-methyl)phenyl)-3-methoxyacrylate]
32 | 50 nM | CO/C=C(/C(=O)OC)c1ccccc1COc1cccc(OCc2ccccc2)c1 [Compound 3, (E)-methyl 2-(2-((3-(benzyloxy)phenoxy)methyl)phenyl)-3-methoxyacrylate]
33 | 20 nM | CCCO/N=C/c1ccc(OCc2ccccc2/C(=C\OC)C(=O)OC)c(C)c1 [Compound 32, (E)-methyl 2-(2-((2-methyl-4-((E)-(propoxyimino)methyl)phenoxy)-methyl)phenyl)-3-methoxyacrylate]
34 | 1 nM | CCCO/N=C(\CC)c1cc(C)c(OCc2ccccc2/C(=C\OC)C(=O)OC)cc1C [Compound 1, (E)-methyl 2-(2-((2,5-dimethyl-4-((E)-1-(propoxyimino)propyl)phenoxy)-methyl)phenyl)-3-methoxyacrylate]
35 | 1 nM | CCCO/N=C(\C)c1cc(C)c(OCc2ccccc2/C(=C\OC)C(=O)OC)cc1C [Compound 2, (E)-methyl 2-(2-((2,5-dimethyl-4-((E)-1-(propoxyimino)ethyl)phenoxy)-methyl)phenyl)-3-methoxyacrylate]
